Results: ChEMBL document CHEMBL1201862, “PubChem BioAssay data set” (2004)
Active and inactive are the calls of the source.

Legend:
[1] = molecular target: Fructose-bisphosphate aldolase (Mycobacterium tuberculosis, UniProt P9WQA3); assay: Fluorescence-based biochemical high throughput dose response assay for inhibitors of the fructose-bisphosphate aldolase (FBA) of M. tuberculosis.; format: functional
Beta-galactosidase = Beta-galactosidase (Escherichia coli, UniProt Q8VNN2); assay: Dose response counterscreen for EBI2 assay utilizing the enzyme, b-galactosidase.; format: functional
Cytochrome P450 1A2 = molecular target: T1, Cytochrome P450 1A2 (Homo sapiens, UniProt P05177);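 further: PubChem cytochrome P450 panel assay, CYP1A2 panel member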
T1 sequence (P05177 whole entry): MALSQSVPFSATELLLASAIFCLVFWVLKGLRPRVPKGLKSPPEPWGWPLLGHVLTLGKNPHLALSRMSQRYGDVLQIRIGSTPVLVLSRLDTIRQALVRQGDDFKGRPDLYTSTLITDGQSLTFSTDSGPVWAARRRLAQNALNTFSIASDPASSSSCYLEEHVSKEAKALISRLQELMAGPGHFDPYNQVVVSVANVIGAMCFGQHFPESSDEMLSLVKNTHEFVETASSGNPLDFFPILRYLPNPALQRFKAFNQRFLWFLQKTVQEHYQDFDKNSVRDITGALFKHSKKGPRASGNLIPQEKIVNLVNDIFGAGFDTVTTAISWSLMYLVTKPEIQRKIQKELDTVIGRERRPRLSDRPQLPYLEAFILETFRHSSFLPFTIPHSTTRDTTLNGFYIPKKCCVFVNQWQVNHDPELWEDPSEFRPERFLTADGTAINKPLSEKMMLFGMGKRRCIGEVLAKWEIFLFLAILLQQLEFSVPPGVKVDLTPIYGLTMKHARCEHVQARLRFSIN

Cytochrome P450 2C19 = Cytochrome P450 2C19 (Homo sapiens, UniProt P33261); assay: Cytochrome panel assay with activity outcomes. Panel member name: p450-cyp2c19 Compounds with AC50 equal or less than 10 uM are considered active; format: functional; conditions: read-out: AC50
Albumin = Albumin (Bos taurus, UniProt P02769); assay: Counterscreen for inhibitors of T-cell receptor (TCR)-CD3 interaction: Fluorescence-based biochemical high throughput dose response assay to identify inhibitors of T-cell receptor (TCR)-CD3 interaction using a TAMRA-labeled BSA probe.; format: functional
[2] = viability loss in HepG2 hepatoma cells – cell-based, ATP luminescence, cherry-pick, activator set 2, cytotoxicity control, dose response (AID 1053143); format: functional
Paired box protein Pax-8 = Paired box protein Pax-8 (Homo sapiens, UniProt Q06710); assay: PAX8 transcriptional activity inhibition in RMG-I – RMG-I cells, luciferase, cherry-pick, dose response (AID 687027); format: functional, cell-based;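 further: luciferase reporter driven by Pax8 target thyroperoxidase promoter measured by SteadyGlo luminescence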
[3] = CMV-driven luciferase expression suppression in HEK293 – cell-based, luminescence, dry powder, counter-screen for Pax8 inhibitor project, dose response (AID 743020); format: functional
[4] = Late stage assay provider results from the probe development effort to identify inhibitors of the Plasmodium falciparum M18 Aspartyl Aminopeptidase (M18AAP): radiolabel-based cell-based dose response assay to identify compounds that inhibit P. falciparum growth in RBCs, Set 2..; format: functional
[5] = molecular target: 1-phosphatidylinositol 4,5-bisphosphate phosphodiesterase beta-3 (Homo sapiens, UniProt Q01970); assay: Fluorescence-based biochemical high throughput dose response assay to identify inhibitors of phospholipase C isozymes (PLC-B3).
[6] = molecular target: 1-phosphatidylinositol 4,5-bisphosphate phosphodiesterase gamma-1 (Homo sapiens, UniProt P19174); assay: Counterscreen for inhibitors of phospholipase C isozymes (PLC-B3): Fluorescence-based biochemical high throughput dose response assay to identify inhibitors of phospholipase C isozymes (PLC-gamma1).
[7] = inhibitors acting on PAX2 in cells – cell-based, plate reader, dry powder samples, selectivity assay for PAX8 inhibitor project, dose response (AID 743048); format: functional;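 further: HEK293 cells carrying a WT1 promoter luciferase reporter driven by expressed Pax2; potency is for inhibition of Pax2 driven reporter signal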
[8] = OVCAR-3 cell viability loss – plate reader, dry powder samples, PAX8 inhibitor project, dose response (AID 743044); format: functional, cell-based
[9] = PAX8-dependent cell viability loss – plate reader, dry powder, dose response (AID 743049); format: functional, cell-based
[10] = OV-90 cell viability loss – plate reader, dry powder, SA8, PAX8 inhibitor project, dose response (AID 743149); format: functional, cell-based
[11] = IGROV1 cell killing – plate reader, dry powder samples, PAX8 inhibitor project, dose response (AID 743043); format: functional, cell-based; conditions: IGROV-1
[12] = COV434 cell viability loss – plate reader, dry powder, SA7, cytotoxicity control for PAX8 inhibitor project, dose response (AID 743145); format: functional, cell-based
[13] = NIH3T3 cell viability loss – ATP luminescence, mouse fibroblasts, counter-screen, dose response (AID 2010); format: functional, cell-based;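 further: cells exposed to compound for about 90 hours before reading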
[14] = molecular target: Disintegrin and metalloproteinase domain-containing protein 17 (Homo sapiens, UniProt P78536); assay: inhibition of ADAM17 substrate cleavage – biochemical, quenched FRET substrate, counter-screen for ADAM10 exosite inhibitor project, dose response (AID 743253)
[15] = potency of ADAM10 substrate cleavage blockers – biochemical, QFRET, dose response (AID 743254);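 further: ADAM10 enzyme with the DM2 quenched FRET peptide as substrate; EDANS fluorescence gain as the protease cuts the substrate; inhibitor potency against ADAM10 proteolytic activity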
[16] = Trypanosoma cruzi growth suppression in host cells – NIH3T3 host cells, beta-gal luminescence, confirmation (AID 2044); format: functional, cell-based;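 further: intracellular parasites grown in NIH/3T3 mouse fibroblasts as host cells; luminescent beta-galactosidase reporter signal from transgenic T. cruzi replicating inside host cells; inhibitors lower the luminescence signal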

Disintegrin and metalloproteinase domain-containing protein 17, sequence (P78536 whole entry, the tested form may be a part): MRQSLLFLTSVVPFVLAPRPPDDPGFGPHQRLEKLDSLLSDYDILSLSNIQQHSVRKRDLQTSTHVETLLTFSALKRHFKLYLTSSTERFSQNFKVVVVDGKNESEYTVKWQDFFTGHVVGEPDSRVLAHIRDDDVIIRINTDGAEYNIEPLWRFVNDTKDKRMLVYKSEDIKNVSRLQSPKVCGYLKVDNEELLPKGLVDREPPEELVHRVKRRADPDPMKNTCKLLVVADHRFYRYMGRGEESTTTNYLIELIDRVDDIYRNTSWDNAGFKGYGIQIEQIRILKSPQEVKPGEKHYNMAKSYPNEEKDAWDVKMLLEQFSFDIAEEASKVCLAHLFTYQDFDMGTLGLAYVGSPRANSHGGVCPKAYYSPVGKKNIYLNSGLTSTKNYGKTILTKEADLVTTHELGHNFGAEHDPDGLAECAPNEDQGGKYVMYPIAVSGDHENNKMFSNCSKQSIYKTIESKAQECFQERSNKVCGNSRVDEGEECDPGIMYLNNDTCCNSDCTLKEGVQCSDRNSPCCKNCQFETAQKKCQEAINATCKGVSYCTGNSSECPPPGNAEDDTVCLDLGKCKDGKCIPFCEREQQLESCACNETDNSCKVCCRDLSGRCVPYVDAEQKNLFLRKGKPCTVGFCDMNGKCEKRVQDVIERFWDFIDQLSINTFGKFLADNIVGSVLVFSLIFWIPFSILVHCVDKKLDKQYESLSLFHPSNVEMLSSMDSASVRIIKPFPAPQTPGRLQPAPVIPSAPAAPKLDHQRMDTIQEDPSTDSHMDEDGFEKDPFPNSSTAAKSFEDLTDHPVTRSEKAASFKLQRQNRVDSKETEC
Fructose-bisphosphate aldolase, sequence (P9WQA3 whole entry): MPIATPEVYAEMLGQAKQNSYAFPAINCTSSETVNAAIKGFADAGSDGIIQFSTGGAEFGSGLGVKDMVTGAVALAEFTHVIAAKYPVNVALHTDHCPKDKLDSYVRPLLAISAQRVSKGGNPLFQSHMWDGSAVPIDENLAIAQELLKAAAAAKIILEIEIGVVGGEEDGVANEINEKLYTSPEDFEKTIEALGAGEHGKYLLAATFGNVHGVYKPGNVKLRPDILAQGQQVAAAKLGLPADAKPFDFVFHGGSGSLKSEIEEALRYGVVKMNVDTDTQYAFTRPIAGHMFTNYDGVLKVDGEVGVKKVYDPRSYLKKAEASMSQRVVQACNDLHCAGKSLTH
Paired box protein Pax-8, sequence (Q06710 whole entry): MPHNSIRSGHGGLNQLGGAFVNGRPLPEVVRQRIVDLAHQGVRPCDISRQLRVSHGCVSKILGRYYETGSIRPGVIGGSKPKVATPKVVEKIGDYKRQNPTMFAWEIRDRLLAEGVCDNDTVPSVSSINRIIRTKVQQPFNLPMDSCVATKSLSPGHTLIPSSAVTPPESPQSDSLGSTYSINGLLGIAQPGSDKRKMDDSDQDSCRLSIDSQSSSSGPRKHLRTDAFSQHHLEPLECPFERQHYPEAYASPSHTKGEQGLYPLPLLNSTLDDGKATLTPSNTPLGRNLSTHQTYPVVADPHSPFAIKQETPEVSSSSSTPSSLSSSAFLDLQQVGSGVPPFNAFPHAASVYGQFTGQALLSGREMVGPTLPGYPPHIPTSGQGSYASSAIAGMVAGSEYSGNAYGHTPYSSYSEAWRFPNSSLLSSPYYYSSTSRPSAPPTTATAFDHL
Cytochrome P450 2C19, sequence (P33261 whole entry): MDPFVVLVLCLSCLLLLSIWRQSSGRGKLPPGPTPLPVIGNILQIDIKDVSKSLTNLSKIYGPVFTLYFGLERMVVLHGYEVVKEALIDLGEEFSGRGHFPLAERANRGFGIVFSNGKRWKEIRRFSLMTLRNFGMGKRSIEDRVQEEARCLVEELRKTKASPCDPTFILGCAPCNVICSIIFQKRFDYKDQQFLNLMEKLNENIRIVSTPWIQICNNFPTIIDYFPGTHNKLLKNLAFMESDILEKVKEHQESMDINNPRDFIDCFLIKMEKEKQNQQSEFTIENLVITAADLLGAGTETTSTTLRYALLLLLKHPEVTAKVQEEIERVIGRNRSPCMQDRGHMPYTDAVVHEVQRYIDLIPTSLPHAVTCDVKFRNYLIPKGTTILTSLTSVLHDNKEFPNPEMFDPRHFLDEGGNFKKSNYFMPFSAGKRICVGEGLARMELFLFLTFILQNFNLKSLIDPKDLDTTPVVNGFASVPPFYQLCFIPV
1-phosphatidylinositol 4,5-bisphosphate phosphodiesterase gamma-1, sequence (P19174 whole entry): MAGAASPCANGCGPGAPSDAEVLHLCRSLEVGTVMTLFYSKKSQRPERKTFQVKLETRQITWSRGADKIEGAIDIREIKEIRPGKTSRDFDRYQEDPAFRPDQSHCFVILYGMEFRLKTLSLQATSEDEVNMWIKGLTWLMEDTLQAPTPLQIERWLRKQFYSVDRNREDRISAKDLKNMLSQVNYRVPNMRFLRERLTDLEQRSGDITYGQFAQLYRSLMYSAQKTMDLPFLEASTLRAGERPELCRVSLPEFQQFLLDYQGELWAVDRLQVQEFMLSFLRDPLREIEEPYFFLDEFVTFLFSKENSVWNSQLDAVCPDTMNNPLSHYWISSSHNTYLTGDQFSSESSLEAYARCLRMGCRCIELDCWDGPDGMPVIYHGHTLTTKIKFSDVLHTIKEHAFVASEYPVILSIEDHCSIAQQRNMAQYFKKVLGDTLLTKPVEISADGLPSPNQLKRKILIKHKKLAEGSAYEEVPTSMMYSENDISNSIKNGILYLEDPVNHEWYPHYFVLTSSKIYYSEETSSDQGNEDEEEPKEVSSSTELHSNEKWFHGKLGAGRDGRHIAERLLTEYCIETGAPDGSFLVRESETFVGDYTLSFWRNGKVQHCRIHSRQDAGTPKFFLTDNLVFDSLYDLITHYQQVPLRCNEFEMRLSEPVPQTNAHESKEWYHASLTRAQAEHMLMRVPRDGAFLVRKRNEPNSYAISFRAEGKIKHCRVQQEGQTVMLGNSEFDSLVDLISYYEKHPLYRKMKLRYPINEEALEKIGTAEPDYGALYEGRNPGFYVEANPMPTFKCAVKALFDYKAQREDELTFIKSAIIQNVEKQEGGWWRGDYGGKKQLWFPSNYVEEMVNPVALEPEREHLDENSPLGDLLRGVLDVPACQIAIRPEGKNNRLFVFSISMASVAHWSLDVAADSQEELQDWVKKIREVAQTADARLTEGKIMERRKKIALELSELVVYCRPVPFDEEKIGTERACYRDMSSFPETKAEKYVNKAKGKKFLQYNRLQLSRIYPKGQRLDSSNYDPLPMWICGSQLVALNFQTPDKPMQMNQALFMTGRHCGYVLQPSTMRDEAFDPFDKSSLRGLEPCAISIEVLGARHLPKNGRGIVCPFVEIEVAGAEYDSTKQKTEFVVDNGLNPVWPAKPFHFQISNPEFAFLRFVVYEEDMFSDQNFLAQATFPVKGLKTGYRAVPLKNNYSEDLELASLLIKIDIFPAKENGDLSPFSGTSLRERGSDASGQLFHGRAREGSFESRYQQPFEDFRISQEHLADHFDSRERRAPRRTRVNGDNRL
Beta-galactosidase, sequence (Q8VNN2 whole entry): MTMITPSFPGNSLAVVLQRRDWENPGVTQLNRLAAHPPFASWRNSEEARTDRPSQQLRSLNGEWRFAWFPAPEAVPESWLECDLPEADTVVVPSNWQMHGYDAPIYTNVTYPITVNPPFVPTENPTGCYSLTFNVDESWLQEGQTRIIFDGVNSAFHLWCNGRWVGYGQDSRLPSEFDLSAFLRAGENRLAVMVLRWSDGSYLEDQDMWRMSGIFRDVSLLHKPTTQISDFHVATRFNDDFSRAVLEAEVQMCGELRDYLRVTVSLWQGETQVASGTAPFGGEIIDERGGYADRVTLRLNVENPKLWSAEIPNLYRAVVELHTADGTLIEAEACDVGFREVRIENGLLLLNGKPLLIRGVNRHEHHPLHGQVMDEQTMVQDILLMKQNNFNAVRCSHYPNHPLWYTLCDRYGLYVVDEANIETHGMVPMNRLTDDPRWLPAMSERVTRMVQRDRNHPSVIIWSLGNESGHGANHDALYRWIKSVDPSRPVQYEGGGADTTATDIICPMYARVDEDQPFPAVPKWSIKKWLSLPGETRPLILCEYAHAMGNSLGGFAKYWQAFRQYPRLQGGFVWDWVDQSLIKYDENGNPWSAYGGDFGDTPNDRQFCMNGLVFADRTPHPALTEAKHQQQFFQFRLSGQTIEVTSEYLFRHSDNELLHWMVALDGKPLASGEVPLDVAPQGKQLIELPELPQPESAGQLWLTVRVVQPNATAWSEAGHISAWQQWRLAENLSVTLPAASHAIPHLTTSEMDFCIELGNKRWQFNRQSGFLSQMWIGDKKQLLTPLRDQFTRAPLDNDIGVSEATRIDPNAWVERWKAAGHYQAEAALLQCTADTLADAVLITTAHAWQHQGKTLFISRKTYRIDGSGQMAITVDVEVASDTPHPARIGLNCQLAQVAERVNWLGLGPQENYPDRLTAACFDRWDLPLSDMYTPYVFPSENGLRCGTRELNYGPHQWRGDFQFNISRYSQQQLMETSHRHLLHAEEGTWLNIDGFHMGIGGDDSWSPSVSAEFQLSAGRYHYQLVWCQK
Albumin, sequence (P02769 whole entry): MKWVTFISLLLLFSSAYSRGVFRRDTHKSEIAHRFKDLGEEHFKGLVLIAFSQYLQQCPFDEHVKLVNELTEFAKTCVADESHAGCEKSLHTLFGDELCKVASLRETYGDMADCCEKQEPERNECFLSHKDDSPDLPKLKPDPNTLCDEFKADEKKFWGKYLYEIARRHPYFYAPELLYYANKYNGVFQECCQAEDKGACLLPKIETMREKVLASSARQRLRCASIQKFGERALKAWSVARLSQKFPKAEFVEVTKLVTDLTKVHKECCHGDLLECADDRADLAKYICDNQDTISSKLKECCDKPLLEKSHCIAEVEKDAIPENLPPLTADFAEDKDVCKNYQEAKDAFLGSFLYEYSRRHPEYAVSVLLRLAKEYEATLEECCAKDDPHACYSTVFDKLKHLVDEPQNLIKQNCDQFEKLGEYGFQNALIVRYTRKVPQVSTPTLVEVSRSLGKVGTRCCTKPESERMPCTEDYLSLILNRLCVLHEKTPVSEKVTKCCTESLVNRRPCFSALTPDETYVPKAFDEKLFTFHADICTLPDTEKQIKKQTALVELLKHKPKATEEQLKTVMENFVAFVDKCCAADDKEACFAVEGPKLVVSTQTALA

SMILES: CCOC(=O)N1CCc2cc(OC)c(OC)c3c2c1cc1cc(OC)c(OC)cc13
- IC50 [1]: 2.7 µM (active)

SMILES: CCOC(=O)N1CCN(C(=O)c2cc(-c3ccc(F)cc3)[nH]c2C)CC1
- IC50 (Beta-galactosidase): > 80 µM (inactive)
- AC50 (Cytochrome P450 1A2): 20 µM (inconclusive)
- AC50 (Cytochrome P450 2C19): 10 µM (inconclusive)

SMILES: CC(C)(C)c1ccc(C(=O)NCC(=O)NNC(=O)c2ccccc2O)cc1
- IC50 (Albumin): > 94.1 µM (inactive)

SMILES: Cc1cc(NC(=O)c2ccco2)sc1C
- AC50 [2]: 26 µM (active)

SMILES: C[C@@H]1CCCCO[C@H](CN(C)Cc2ccc(Cl)c(Cl)c2)[C@@H](C)CN([C@@H](C)CO)C(=O)c2cc(NC(=O)Nc3ccccc3)ccc2O1
- AC50 (Paired box protein Pax-8): 4.29 µM (active)
- AC50 [3]: 47.9 µM (active)

SMILES: Cc1cccc2c(NCCc3ccc(O)c(O)c3)ccnc12
- IC50 [4]: 4.7 µM (active)

SMILES: ONC(=Nc1ccc(Cl)cc1)c1ccccc1
- IC50 [5]: > 122 µM (inactive)
- IC50 [6]: > 122 µM (inactive)

SMILES: CN(C)CCCN(C(=O)CCOc1ccccc1)c1nc2c(F)cccc2s1
- AC50 [7]: > 100 µM (inactive)
- AC50 [8]: 44.9 µM (active)
- AC50 [9]: 10.8 µM (active)
- AC50 [10]: 13.1 µM (active)
- AC50 [11]: 44.1 µM (active)
- AC50 [12]: 22.8 µM (active)

SMILES: S=C(Nc1ccc(Nc2ccccc2)cc1)NC1CCCCCC1
- EC50 [13]: 29 µM (active)
- IC50 [14]: > 69.5 µM (inactive)
- IC50 [15]: > 7.72 µM (active)
- EC50 [16]: 2.21 µM (active)
